Data published in patent US4272437A, “Antibacterial agents, and 4-thio azetidinone intermediates” (priority 1979, dated 1981).
≈ marks a conversion by molar mass, not a printed value.

Tests used:
[1] = tested on: Str. pneumoniae A-9585; experiment: MIC, tube dilution, Streptococcus pneumoniae A9585; type: cell-based; details: overnight 37° C., Nutrient Broth; for Minimum Inhibitory Concentration (M.I.C.): Str. pneumoniae A9585
Excerpt: (§1) Representative compounds of the present invention were subjected to in vitro antibiotic screening against a variety of microorganisms.

[2] = tested on: Str. pyogenes A-9604; experiment: MIC, tube dilution, Streptococcus pyogenes A9604; type: cell-based; details: overnight 37° C., Nutrient Broth; for Minimum Inhibitory Concentration (M.I.C.): Str. pyogenes A9604
Excerpt: as §1

[3] = tested on: Staph. aureus A-9537; experiment: MIC, tube dilution, Staphylococcus aureus A9537; type: cell-based; details: overnight 37° C., Nutrient Broth; for Minimum Inhibitory Concentration (M.I.C.): Staph. aureus A9537
Excerpt: as §1

[4] = tested on: Staph. aureus A-9537 and 50% serum; experiment: MIC, tube dilution, Staph. aureus A9537 + 50% serum; type: cell-based, Staphylococcus aureus; details: overnight 37° C.
Excerpt: as §1

[5] = tested on: Staph. aureus (Pen-Res) A-9606; experiment: MIC, tube dilution, Staphylococcus aureus A9606 (Pen-Res); type: cell-based; details: overnight 37° C.; for Minimum Inhibitory Concentration (M.I.C.): Staph. aureus A9606 (Pen-Res)
Excerpt: as §1

[6] = tested on: Staph. aureus (Meth-Res) A-15097; experiment: MIC, tube dilution, Staphylococcus aureus A15097 (Meth-Res); type: cell-based; details: overnight 37° C.; for Minimum Inhibitory Concentration (M.I.C.): Staph. aureus A15097 (Meth-Res)
Excerpt: as §1

[7] = tested on: Str. faecalis A-20688; experiment: MIC, tube dilution, Streptococcus faecalis A20688; type: cell-based; details: overnight 37° C.; for Minimum Inhibitory Concentration (M.I.C.): Str. faecalis A20688
Excerpt: as §1

[8] = tested on: E. coli A-15119; experiment: MIC, tube dilution, Escherichia coli A15119; type: cell-based; details: overnight 37° C.; for Minimum Inhibitory Concentration (M.I.C.): E. coli A15119
Excerpt: as §1

[9] = tested on: E. coli A-20341-1; experiment: MIC, tube dilution, Escherichia coli A20341-1; type: cell-based; details: E. coli A20341-1, overnight 37° C.
Excerpt: as §1

[10] = tested on: K. pneumoniae A-15130; experiment: MIC, tube dilution, Klebsiella pneumoniae A15130; type: cell-based; details: overnight 37° C.; for Minimum Inhibitory Concentration (M.I.C.): K. pneumoniae A15130
Excerpt: as §1

[11] = tested on: Klebsiella species A20468; experiment: MIC, tube dilution, Klebsiella species A20468; type: cell-based; details: Klebsiella species (K. pneumoniae) A20468, overnight 37° C.
Excerpt: as §1

[12] = tested on: Pr. mirabilis A-9900; experiment: MIC, tube dilution, Proteus mirabilis A9900; type: cell-based; details: overnight 37° C.; for Minimum Inhibitory Concentration (M.I.C.): Proteus mirabilis A9900
Excerpt: as §1

[13] = tested on: Pr. morganii A-15153; experiment: MIC, tube dilution, Proteus morganii A15153; type: cell-based; details: overnight 37° C.; for Minimum Inhibitory Concentration (M.I.C.): Proteus morganii A15153
Excerpt: as §1

[14] = tested on: Ser. marcescens A-20019; experiment: MIC, tube dilution, Serratia marcescens A20019; type: cell-based; details: overnight 37° C.; for Minimum Inhibitory Concentration (M.I.C.): Serratia marcescens A20019
Excerpt: as §1

[15] = tested on: Ent. cloacae A-9659; experiment: MIC, tube dilution, Enterobacter cloacae A9659; type: cell-based; details: overnight 37° C.; for Minimum Inhibitory Concentration (M.I.C.): Enterobacter cloacae A9659
Excerpt: as §1

[16] = tested on: Ent. cloacae A-9656; experiment: MIC, tube dilution, Enterobacter cloacae A9656; type: cell-based; details: Enterobacter cloacae A9656, overnight 37° C.
Excerpt: as §1

[17] = tested on: Ps. aeruginosa A-9843A; experiment: MIC, tube dilution, Pseudomonas aeruginosa A9843A; type: cell-based; details: overnight 37° C.; for Minimum Inhibitory Concentration (M.I.C.): Pseudomonas aeruginosa A9843A
Excerpt: as §1

[18] = tested on: Ps. aeruginosa A-21213; experiment: MIC, tube dilution, Pseudomonas aeruginosa A21213; type: cell-based; details: Pseudomonas aeruginosa A21213, overnight 37° C.
Excerpt: as §1

[19] = tested on: Proteus rettgeri A21203; experiment: MIC, tube dilution, Proteus rettgeri A21203; type: cell-based; details: Proteus rettgeri A21203, overnight 37° C.
Excerpt: as §1

[20] = tested on: Proteus vulgaris A21559; experiment: MIC, tube dilution, Proteus vulgaris A21559; type: cell-based; details: for Minimum Inhibitory Concentration (M.I.C.): Proteus vulgaris A21559, overnight 37° C.
Excerpt: as §1

[21] = read-out: Minimum Inhibitory Concentration (M.I.C.)

| SMILES | Minimum Inhibitory Concentration (M.I.C.) [1] | Minimum Inhibitory Concentration (M.I.C.) [2] | Minimum Inhibitory Concentration (M.I.C.) [3] | Minimum Inhibitory Concentration (M.I.C.) [4] | Minimum Inhibitory Concentration (M.I.C.) [5] | Minimum Inhibitory Concentration (M.I.C.) [6] | Minimum Inhibitory Concentration (M.I.C.) [7] | Minimum Inhibitory Concentration (M.I.C.) [8] | Minimum Inhibitory Concentration (M.I.C.) [9] | Minimum Inhibitory Concentration (M.I.C.) [10] | Minimum Inhibitory Concentration (M.I.C.) [11] | Minimum Inhibitory Concentration (M.I.C.) [12] | Minimum Inhibitory Concentration (M.I.C.) [13] | Minimum Inhibitory Concentration (M.I.C.) [14] | Minimum Inhibitory Concentration (M.I.C.) [15] | Minimum Inhibitory Concentration (M.I.C.) [16] | Minimum Inhibitory Concentration (M.I.C.) [17] | Minimum Inhibitory Concentration (M.I.C.) [18] | Minimum Inhibitory Concentration (M.I.C.) [19] | Minimum Inhibitory Concentration (M.I.C.) [20] | further results |
| --- | --- | --- | --- | --- | --- | --- | --- | --- | --- | --- | --- | --- | --- | --- | --- | --- | --- | --- | --- | --- | --- |
| NCCCCCC1=C(C(=O)O)N2C(=O)C[C@H]2S1 [Example 102, (5R) 2-(5'-aminopentyl)-penem-3-carboxylic acid] | .008 µg/mL | .016 µg/mL | .03 µg/mL | .25 µg/mL | 2 µg/mL | 8 µg/mL | 4 µg/mL | 1 µg/mL | 16 µg/mL | 2 µg/mL | > 63 µg/mL | 2 µg/mL | 2 µg/mL | 2 µg/mL | 4 µg/mL | 2 µg/mL | 8 µg/mL | > 63 µg/mL | 2 µg/mL | 16 µg/mL |  |
| NC1CCC(C2=C(C(=O)O)N3C(=O)C[C@H]3S2)C1 (single isomer, unassigned) [98 isomer C, 2-(3-Aminocyclopentyl)-penem-3-carboxylic acid] | .06 µg/mL | .06 µg/mL | .13 µg/mL | 4 µg/mL | > 63 µg/mL | > 63 µg/mL | 32 µg/mL | 2 µg/mL | 16 µg/mL | 8 µg/mL | > 63 µg/mL | 8 µg/mL | 16 µg/mL | 8 µg/mL | 16 µg/mL | 8 µg/mL | 32 µg/mL | > 63 µg/mL | 4 µg/mL | 16 µg/mL |  |
| CC1=C(C(=O)O)N2C(=O)[C@H]([C@H](O)Cc3ccccc3)[C@H]2S1 (relative stereo) [Example 95, (1'R,5R,6S and 1'S,5S,6R) 6-(1'-Hydroxy-2'-phenylethyl)-2-methylpenem-3-carboxylic acid (isomer B)] |  |  |  |  |  |  |  |  |  |  |  |  |  |  |  |  |  |  |  |  | MIC ([1]; Streptococcus pneumoniae, A9585, Str. pneumoniae A9585, read-out: Minimum Inhibitory Concentration (M.I.C.)): 32 µg/mL (≈ 105 µM); MIC ([2]; Streptococcus pyogenes, A9604, Str. pyogenes A9604, read-out: Minimum Inhibitory Concentration (M.I.C.)): 32 µg/mL (≈ 105 µM); MIC ([3]; Staphylococcus aureus, A9537, Staph. aureus A9537, read-out: Minimum Inhibitory Concentration (M.I.C.)): 125 µg/mL (≈ 409 µM); MIC ([4]; Staphylococcus aureus, read-out: Minimum Inhibitory Concentration (M.I.C.)): > 63 µg/mL; MIC ([5]; Staphylococcus aureus, read-out: Minimum Inhibitory Concentration (M.I.C.), Staph. aureus A9606 (Pen-Res)): > 125 µg/mL; MIC ([6]; Staphylococcus aureus, read-out: Minimum Inhibitory Concentration (M.I.C.), Staph. aureus A15097 (Meth-Res)): > 125 µg/mL; MIC ([7]; Enterococcus faecalis, A20688, Str. faecalis A20688, read-out: Minimum Inhibitory Concentration (M.I.C.)): > 125 µg/mL; MIC ([8]; Escherichia coli, A15119, E. coli A15119, read-out: Minimum Inhibitory Concentration (M.I.C.)): > 125 µg/mL; MIC ([9]; Escherichia coli, A203411, read-out: Minimum Inhibitory Concentration (M.I.C.)): > 125 µg/mL; MIC ([10]; Klebsiella pneumoniae, A15130, K. pneumoniae A15130, read-out: Minimum Inhibitory Concentration (M.I.C.)): > 125 µg/mL; MIC [11, 21]: > 125 µg/mL; MIC ([12]; Proteus mirabilis, A9900, Proteus mirabilis A9900, read-out: Minimum Inhibitory Concentration (M.I.C.)): > 125 µg/mL; MIC ([13]; Morganella morganii, A15153, Proteus morganii A15153, read-out: Minimum Inhibitory Concentration (M.I.C.)): > 125 µg/mL; MIC ([14]; Serratia marcescens, A20019, Serratia marcescens A20019, read-out: Minimum Inhibitory Concentration (M.I.C.)): > 125 µg/mL; MIC ([15]; Enterobacter cloacae, A9659, Enterobacter cloacae A9659, read-out: Minimum Inhibitory Concentration (M.I.C.)): > 125 µg/mL; MIC [16, 21]: > 125 µg/mL; MIC ([17]; Pseudomonas aeruginosa, A9843A, read-out: Minimum Inhibitory Concentration (M.I.C.), Pseudomonas aeruginosa A9843A): > 125 µg/mL; MIC [18, 21]: > 125 µg/mL; MIC ([19]; Providencia rettgeri, read-out: Minimum Inhibitory Concentration (M.I.C.)): > 125 µg/mL; MIC ([20]; Proteus vulgaris, A21559, read-out: Minimum Inhibitory Concentration (M.I.C.)): > 125 µg/mL |
